Read-outs that look alike come from different tables or passages of the source.
Experiments:
[1] = system: Human primary small intestinal epithelial cells (HSIEC)
IL-6 = IL-6 in HSIEC cells treated with TNF-α/IFN-γ; format: cell-based, human; details: single agent, escalating doses
Description: (§1) Cell Culture: Human primary small intestinal epithelial cells (HSIEC), purchased from Cell Biologics were cultured in Epithelial Cell Medium/w Kit. HSIEC cells were incubated at 37° C. in a humidified atmosphere of 5% CO2. HSIEC cells were treated with mycoplasma removal reagent BM-Cyclin (Roche) to ensure mycoplasma negative before treatment.
Induction of Inflammation in HSIECs and Treatment with Molecules of Interest: HSIEC cells grown to 80% confluence were treated with 10 ng/ml TNF-α/IFN-γ (Sigma) (Yang et al., 2015), for the time points indicated in FIG. 9, to assess the best time point for determination of anti-inflammatory potential of the molecules and formulations of interest. To do so, COX-2, an enzyme which mediates the bioconversion of arachidonic acid to inflammatory prostaglandins (PGs), was measured via densitometry. GAPDH was used as a reference housekeeping marker for relative densitometry measures. […] The anti-inflammatory potential of the molecules and formulations of interest were evaluated at 48 hours post-TNF-α/IFN-γ treatment in the HSIEC assays described below due to reduced variability and ability to assess differences between treatments. Ethanol or DMSO was used, as indicated in the figures, as a vehicle for dilution and as a negative control showing the amount of the inflammatory marker present when inflammation was not induced. […]

COX-2 = COX-2 in HSIEC cells treated with TNF-α/IFN-γ (western blot, densitometry); format: cell-based, human; details: single agent, escalating doses
Description: as §1
To do so, COX-2, an enzyme which mediates the bioconversion of arachidonic acid to inflammatory prostaglandins (PGs), was measured via densitometry. GAPDH was used as a reference housekeeping marker for relative densitometry measures. […] Ethanol or DMSO was used, as indicated in the figures, as a vehicle for dilution and as a negative control showing the amount of the inflammatory marker present when inflammation was not induced.
Increasing doses of each molecule of interest, or each combination of molecules of interest, were then distributed to the HSIEC cells treated to induce inflammatory response. Inflammatory markers COX-2 and/or IL-6 were assessed at specific timepoints after induction of inflammation for protein content marker measured via western blot. GAPDH was used as a reference housekeeping marker for relative densitometry measures of protein content.

IL-8 = IL-8 in HSIEC cells treated with TNF-α/IFN-γ; format: cell-based, human; details: single agent, escalating doses
mice = details: intraplantar injections (Bandell, 2004); cited from earlier work
rats = rats (Iwasaki, 2008); cited from earlier work
anandamide levels = details: chronic, but not acute, administration of 150 mg/kg (Smalheiser, 2019); cited from earlier work

Cc1ccc(C(C)C)cc1O [carvacrol]
effect on cell growth / cellular metabolic activity (MTT, words) [1]: could only be studied at very low dose
Cellular Metabolic Activity ([1]; 5 μM, 24 h): 0.072
Cellular Metabolic Activity ([1]; 5 μM, 48 h): 0.175
Cellular Metabolic Activity ([1]; 5 μM, 72 h): 0.261
Cellular Metabolic Activity ([1]; 5 μM, 96 h): 0.501
Cellular Metabolic Activity ([1]; 5 μM, time 0): 0.022
Cellular Metabolic Activity ([1]; 10 μM, 24 h): 0.070
Cellular Metabolic Activity ([1]; 10 μM, 48 h): 0.164
Cellular Metabolic Activity ([1]; 10 μM, 72 h): 0.267
Cellular Metabolic Activity ([1]; 10 μM, 96 h): 0.487
Cellular Metabolic Activity ([1]; 10 μM, time 0): 0.021
Cellular Metabolic Activity ([1]; 20 μM, 24 h): 0.071
Cellular Metabolic Activity ([1]; 20 μM, 48 h): 0.171
Cellular Metabolic Activity ([1]; 20 μM, 72 h): 0.266
Cellular Metabolic Activity ([1]; 20 μM, 96 h): 0.461
Cellular Metabolic Activity ([1]; 20 μM, time 0): 0.022
Cellular Metabolic Activity ([1]; 40 μM, 24 h): 0.070
Cellular Metabolic Activity ([1]; 40 μM, 48 h): 0.159
Cellular Metabolic Activity ([1]; 40 μM, 72 h): 0.272
Cellular Metabolic Activity ([1]; 40 μM, 96 h): 0.544
Cellular Metabolic Activity ([1]; 40 μM, time 0): 0.022
Cellular Metabolic Activity ([1]; 80 μM, 24 h): 0.076
Cellular Metabolic Activity ([1]; 80 μM, 48 h): 0.120
Cellular Metabolic Activity ([1]; 80 μM, 72 h): 0.221
Cellular Metabolic Activity ([1]; 80 μM, 96 h): 0.423
Cellular Metabolic Activity ([1]; 80 μM, time 0): 0.025
Cellular Metabolic Activity ([1]; 100 μM, 24 h): 0.069
Cellular Metabolic Activity ([1]; 100 μM, 48 h): 0.106
Cellular Metabolic Activity ([1]; 100 μM, 72 h): 0.259
Cellular Metabolic Activity ([1]; 100 μM, 96 h): 0.397
Cellular Metabolic Activity ([1]; 100 μM, time 0): 0.026
Cellular Metabolic Activity ([1]; 200 μM, 24 h): 0.061
Cellular Metabolic Activity ([1]; 200 μM, 48 h): 0.088
Cellular Metabolic Activity ([1]; 200 μM, 72 h): 0.179
Cellular Metabolic Activity ([1]; 200 μM, 96 h): 0.238
Cellular Metabolic Activity ([1]; 200 μM, time 0): 0.027
Cellular Metabolic Activity ([1]; 400 μM, 24 h): 0.062
Cellular Metabolic Activity ([1]; 400 μM, 48 h): 0.079
Cellular Metabolic Activity ([1]; 400 μM, 72 h): 0.139
Cellular Metabolic Activity ([1]; 400 μM, 96 h): 0.137
Cellular Metabolic Activity ([1]; 400 μM, time 0): 0.027
doses resulting in reduction of IL-6 (IL-6): 10 µM
doses reducing COX-2 to the greatest extent (COX-2): 5 µM
doses resulting in reduction of IL-8 (IL-8): all doses

O=C/C=C/c1ccccc1 [cinnamaldehyde, (2E)-3-phenylprop-2-enal]
nociceptive behavior (mice): cause nociceptive behavior
Cellular Metabolic Activity ([1]; 5 μM, 24 h): 0.183
Cellular Metabolic Activity ([1]; 5 μM, 48 h): 0.148
Cellular Metabolic Activity ([1]; 5 μM, 72 h): 0.236
Cellular Metabolic Activity ([1]; 5 μM, 96 h): 0.423
Cellular Metabolic Activity ([1]; 5 μM, time 0): 0.026
Cellular Metabolic Activity ([1]; 10 μM, 24 h): 0.166
Cellular Metabolic Activity ([1]; 10 μM, 48 h): 0.119
Cellular Metabolic Activity ([1]; 10 μM, 72 h): 0.160
Cellular Metabolic Activity ([1]; 10 μM, 96 h): 0.321
Cellular Metabolic Activity ([1]; 10 μM, time 0): 0.022
Cellular Metabolic Activity ([1]; 20 μM, 24 h): 0.169
Cellular Metabolic Activity ([1]; 20 μM, 48 h): 0.095
Cellular Metabolic Activity ([1]; 20 μM, 72 h): 0.105
Cellular Metabolic Activity ([1]; 20 μM, 96 h): 0.152
Cellular Metabolic Activity ([1]; 20 μM, time 0): 0.025
Cellular Metabolic Activity ([1]; 40 μM, 24 h): 0.171
Cellular Metabolic Activity ([1]; 40 μM, 48 h): 0.049
Cellular Metabolic Activity ([1]; 40 μM, 72 h): 0.018
Cellular Metabolic Activity ([1]; 40 μM, 96 h): 0.015
Cellular Metabolic Activity ([1]; 40 μM, time 0): 0.026
Cellular Metabolic Activity ([1]; 80 μM, 24 h): 0.175
Cellular Metabolic Activity ([1]; 80 μM, 48 h): 0.021
Cellular Metabolic Activity ([1]; 80 μM, 72 h): 0
Cellular Metabolic Activity ([1]; 80 μM, time 0): 0.030
Cellular Metabolic Activity ([1]; 100 μM, 24 h): 0.171
Cellular Metabolic Activity ([1]; 100 μM, 48 h): 0.016
Cellular Metabolic Activity ([1]; 100 μM, time 0): 0.027
Cellular Metabolic Activity ([1]; 200 μM, 24 h): 0.191
Cellular Metabolic Activity ([1]; 200 μM, 48 h): 0.009
Cellular Metabolic Activity ([1]; 200 μM, time 0): 0.031
concentration above which inhibitory effect / significant toxicity (MTT) ([1]; human): over 10 μM
adrenaline secretions (rats): increasing adrenaline secretions

COc1cc(/C=C/C(=O)CC(=O)/C=C/c2ccc(O)c(OC)c2)ccc1O [curcumin, (1E,6E)-1,7-bis(4-hydroxy-3-methoxyphenyl) hepta-1,6-diene-3,5-dione]
Cellular Metabolic Activity ([1]; 1 μM, 24 h): 0.086
Cellular Metabolic Activity ([1]; 1 μM, 48 h): 0.184
Cellular Metabolic Activity ([1]; 1 μM, 72 h): 0.375
Cellular Metabolic Activity ([1]; 1 μM, 96 h): 0.611
Cellular Metabolic Activity ([1]; 1 μM, time 0): 0.040
Cellular Metabolic Activity ([1]; 5 μM, 24 h): 0.079
Cellular Metabolic Activity ([1]; 5 μM, 48 h): 0.148
Cellular Metabolic Activity ([1]; 5 μM, 72 h): 0.299
Cellular Metabolic Activity ([1]; 5 μM, 96 h): 0.595
Cellular Metabolic Activity ([1]; 5 μM, time 0): 0.036
Cellular Metabolic Activity ([1]; 10 μM, 24 h): 0.070
Cellular Metabolic Activity ([1]; 10 μM, 48 h): 0.115
Cellular Metabolic Activity ([1]; 10 μM, 72 h): 0.215
Cellular Metabolic Activity ([1]; 10 μM, 96 h): 0.466
Cellular Metabolic Activity ([1]; 10 μM, time 0): 0.036
Cellular Metabolic Activity ([1]; 20 μM, 24 h): 0.059
Cellular Metabolic Activity ([1]; 20 μM, 48 h): 0.057
Cellular Metabolic Activity ([1]; 20 μM, 72 h): 0.060
Cellular Metabolic Activity ([1]; 20 μM, 96 h): 0.038
Cellular Metabolic Activity ([1]; 20 μM, time 0): 0.040
Cellular Metabolic Activity ([1]; 40 μM, 24 h): 0.038
Cellular Metabolic Activity ([1]; 40 μM, 48 h): 0.026
Cellular Metabolic Activity ([1]; 40 μM, 72 h): 0.014
Cellular Metabolic Activity ([1]; 40 μM, 96 h): 0.00
Cellular Metabolic Activity ([1]; 40 μM, time 0): 0.039
Cellular Metabolic Activity ([1]; 80 μM, 24 h): 0.042
Cellular Metabolic Activity ([1]; 80 μM, 48 h): 0.019
Cellular Metabolic Activity ([1]; 80 μM, 72 h): 0.018
Cellular Metabolic Activity ([1]; 80 μM, 96 h): 0.005
Cellular Metabolic Activity ([1]; 80 μM, time 0): 0.041
anandamide levels in a variety of brain regions (anandamide levels): significantly raised

Source: patent publication US20230405028A1 (priority 2020, published 2023)
